Measured values reported in patent US20210161997A1, “TREATING DISEASES VIA TARGETED MODULATION OF GENE SIGNALING NETWORKS” (Camp4 Therapeutics Corporation, priority 2018, published 2021).

Columns and labels:
[1] = test system: SERPINC1 mRNA; assay: Quantitative PCR of SERPINC1 mRNA in primary human hepatocytes (Lonza Hu4282) treated with compounds; assay type: cell-based; settings: quantitative PCR; for SERPINC1 mRNA, Lonza Hu4282, 1 uM / SERPINC1 mRNA, Lonza Hu4282, 10 uM: primary human hepatocytes Lonza Hu4282; for SERPINC1 mRNA, Lonza Hu4282, 1 uM / SERPINC1 mRNA, H8290, 1 uM: compound 1 uM; for SERPINC1 mRNA, Lonza Hu4282, 10 uM / SERPINC1 mRNA, H8290, 10 uM: compound 10 uM; for SERPINC1 mRNA, H8290, 1 uM / SERPINC1 mRNA, H8290, 10 uM: hepatocytes H8290
[2] = test system: ANGPTL3; assay: RNA-seq of ANGPTL3 expression in compound-treated primary human hepatocytes; assay type: cell-based; settings: for ANGPTL3-LINEAR FOLD CHANGE: additional compounds (Table 13); for ANGPTL3 Fold Change (Log2): primary human hepatocytes (Table 12)
How it was run: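 Cryopreserved primary human hepatocytes from three donors, plated at 375,000 cells/well, switched to complete or modified maintenance medium, then dosed with compound (stocks at 1000× final) for about 18 h. Poly(A) mRNA was sequenced directionally, mapped to GRCh38 with STAR, and gene-level abundance (counts, FPKM) estimated with RSEM against GENCODE 24.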

[3] = test system: SERPINC1 mRNA; assay: Quantitative PCR of SERPINC1 mRNA in mouse hepatocytes treated with compounds; assay type: cell-based; settings: for SERPINC1 mRNA, Mouse Heps, 1 uM: compound 1 uM; for SERPINC1 mRNA, Mouse Heps, 10 uM: compound 10 uM
Protocol: Samples were amplified using Taqman probes from ThermoFisher.
In some examples, RQ Min and RQ Max values are also reported. RQ Min and RQ Max are the minimum and maximum relative levels of gene expression in the test samples, respectively. They were calculated using the confidence level set in the analysis settings and the confidence level was set to one standard deviation (SD). These values were calculated using standard deviation as follows: […].
Compounds were tested in hepatocytes for upregulation of SERPINC1 mRNA for identification of potential treatments of SERPINC1/AT III deficiency.

[4] = test system: SERPINC1 mRNA; assay: RNA seq of SERPINC1 in MGH54 cells treated with select compounds; assay type: cell-based, human; settings: compound 10 uM
[5] = test system: LDLR; assay: RNA-seq of LDLR expression in compound-treated primary human hepatocytes; assay type: cell-based
Protocol: (§1) Human hepatocytes were obtained from two donors from Massachusetts General Hospital, namely MGH54 and MGH63, and one donor from Lonza, namely HUM4111B. Cryopreserved hepatocytes were cultured in plating media for 16 hours, transferred to maintenance media for 4 hours. Cultured on serum-free media for 2 hours, then a compound was added. The hepatocytes were maintained on the serum-free media for 16 hours prior to gene expression analysis. Primary human hepatocytes were stored in the vapor phase of a liquid nitrogen freezer (about −130° C.).
(§2) Human hepatocytes cultured as described above were plated in 24-well format, adding 375,000 cells per well in a volume of 500 ul plating medium. Four hours before treatment, cells were washed with PBS and the medium was changed to either: fresh maintenance medium (complete) or modified maintenance medium.
(§3) Compound stocks were prepared at 1000× final concentration and added in a 2-step dilution to the medium to reduce risk of a compound precipitating out of solution when added to the cells, and to ensure reasonable pipetting volumes. One at a time, each compound was first diluted 10-fold in warm (about 37° C.) modified maintenance medium (initial dilution=ID), mixed by vortexing, and the ID was diluted 100-fold into the cell culture (e.g. 5.1 ul into 1 well of a 24-well plate containing 0.5 mL medium). The plate was mixed by carefully swirling and after all wells were treated and returned to the incubator overnight. If desired, separate plates/wells were treated with vehicle-only controls and/or positive controls. If using multi-well plates, controls were included on each plate. After about 18 hours, cells were harvested for further analysis, e.g., ChIP-seq, RNA-seq, ATAC-seq, etc.
(§4) This protocol is a modified version of the following protocols: MagMAX mirVana Total RNA Isolation Kit User Guide (Applied Biosystems #MAN0011131 Rev B.0), NEBNext Poly(A) mRNA Magnetic Isolation Module (E7490), and NEBNext Ultra Directional RNA Library Prep Kit for Illumina (E7420) (New England Biosystems #E74901).
(§5) The MagMAX mirVana kit instructions (the section titled “Isolate RNA from cells” on pages 14-17) were used for isolation of total RNA from cells in culture. Two hundred μl of Lysis Binding Mix was used per well of the multiwell plate containing adherent cells (usually a 24-well plate).
(§6) For mRNA isolation and library prep, the NEBNext Poly(A) mRNA Magnetic Isolation Module and Directional Prep kit was used. RNA isolated from cells above was quantified, and prepared in […] of each sample in 50 μl of nuclease-free water. This protocol may be run in microfuge tubes or in a 96-well plate.
(§7) All pass filter reads from each sample were mapped against the human genome (assembly GRCh38/GCA_000001405.15 “no alt” analysis set merged with hs38d1/GCA_000786075.2) using two pass mapping via STAR version 2.5.3a (alignment parameters alignIntronMin=20; alignIntronMax=1000000; outFilterMismatchNmax=999; outFilterMismatchNoverLmax=0.05; outFilterType=BySJout; outFilterMultimapNmax=20; alignSJoverhangMin=8; alignSJDBoverhangMin=1; alignMatesGapMax=1000000) (Dobin et al., Bioinformatics (2012) 29(1):15-21). Genomic alignments were converted to transcriptome alignments based on reference transcript annotations from the Human GENCODE Gene Set release 24 (Harrow et al., Genome Res. (2012) 22(9): 1760-1774). Using unique and multimapped transcriptomic alignments, gene-level abundance estimates were computed using RSEM version 1.3.0 (Li and Dewey, BMC Bioinformatics (2011) 12:323) in a strand-aware manner, and including confidence interval sampling calculations, to arrive at posterior mean estimates (PME) of abundances (counts and normalized FPKM—fragments per kilobase of exon per million mapped fragments) from the underlying Bayesian model. Standard QC were applied (read integrity, mapping statistics, library complexity, fragment bias) to remove unsatisfactory samples.

[6] = test system: UGT1A1; assay: RNA-seq of UGT1A1 expression in compound-treated primary human hepatocytes; assay type: cell-based
How it was run: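 Cryopreserved primary human hepatocytes from three donors were plated in 24-well format, then treated with compound diluted from 1000× stocks in serum-free maintenance medium for about 16–18 h. Poly(A) RNA-seq log2 fold change was computed against vehicle/pan-experiment controls. Significance required FPKM ≥1, log2FC ≥0.5 and q ≤0.05.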

[7] = test system: PCSK9; assay: RNA-seq of PCSK9 expression in compound-treated primary human hepatocytes; assay type: cell-based
Protocol: as §1, §2, §3, §4, §5, §6, §7

[8] = test system: SERPINC1; assay: RNA-seq of SERPINC1 expression in compound-treated primary human hepatocytes; assay type: cell-based; settings: significance FPKM ≥1, log 2(fold change) ≥0.5, q-value ≤0.05
Protocol: Human hepatocytes were obtained from two donors from Massachusetts General Hospital, namely MGH54 and MGH63, and one donor from Lonza, namely HUM4111B. Cryopreserved hepatocytes were cultured in plating media for 16 hours, transferred to maintenance media for 4 hours. Cultured on serum-free media for 2 hours, then a compound was added. The hepatocytes were maintained on the serum-free media for 16 hours prior to gene expression analysis. Primary human hepatocytes were stored in the vapor phase of a liquid nitrogen freezer (about -130° C.). Human hepatocytes cultured as described above were plated in 24-well format, adding 375,000 cells per well in a volume of 500 ul plating medium. Four hours before treatment, cells were washed with PBS and the medium was changed to either: fresh maintenance medium (complete) or modified maintenance medium. Compound stocks were prepared at 1000× final concentration and added in a 2-step dilution to the medium to reduce risk of a compound precipitating out of solution when added to the cells, and to ensure reasonable pipetting volumes. […] The plate was mixed by carefully swirling and after all wells were treated and returned to the incubator overnight. If desired, separate plates/wells were treated with vehicle-only controls and/or positive controls. If using multi-well plates, controls were included on each plate. After about 18 hours, cells were harvested for further analysis, e.g., ChIP-seq, RNA-seq, ATAC-seq, etc. This protocol is a modified version of the following protocols: MagMAX mirVana Total RNA Isolation Kit User Guide (Applied Biosystems #MAN0011131 Rev B.0), NEBNext Poly(A) mRNA Magnetic Isolation Module ([…]), and NEBNext Ultra Directional RNA Library Prep Kit for Illumina ([…]) (New England Biosystems #E74901). […] Two hundred μl of Lysis Binding Mix was used per well of the multiwell plate containing adherent cells (usually a 24-well plate). For mRNA isolation and library prep, the NEBNext Poly(A) mRNA Magnetic Isolation Module and Directional Prep kit was used. RNA isolated from cells above was quantified, and prepared in […] of each sample in 50 μl of nuclease-free water. This protocol may be run in microfuge tubes or in a 96-well plate. […] Genomic alignments were converted to transcriptome alignments based on reference transcript annotations from the Human GENCODE Gene Set release 24 (Harrow et al., Genome Res. […] Using unique and multimapped transcriptomic alignments, gene-level abundance estimates were computed using RSEM version 1.3.0 (Li and Dewey, BMC Bioinformatics (2011) 12:323) in a strand-aware manner, and including confidence interval sampling calculations, to arrive at posterior mean estimates (PME) of abundances (counts and normalized FPKM-fragments per kilobase of exon per million mapped fragments) from the underlying Bayesian model. Standard QC were applied (read integrity, mapping statistics, library complexity, fragment bias) to remove unsatisfactory samples. Differential gene expression was computed using the negative binomial model implemented by DESeq2 version 1.16.1 (Love et al., Genome Biol. (2014) 15(12):550). […] RNA-seq signals were also normalized by read depth and visualized using the UCSC browser. To identify small molecules that modulate target gene expression, primary human hepatocytes were prepared as a monoculture, and at least one small molecule compound was applied to the cells. RNA-seq was performed to determine the effects of the compounds on the expression of the target genes in hepatocytes. Fold change was calculated by dividing the level of expression in the cell system that had been perturbed by the level of expression in an unperturbed system.

SMILES | SERPINC1 mRNA, Lonza Hu4282, 1 uM [1] | SERPINC1 mRNA, Lonza Hu4282, 10 uM [1] | ANGPTL3-LINEAR FOLD CHANGE [2] | SERPINC1 mRNA, Mouse Heps, 1 uM [3] | SERPINC1 mRNA, Mouse Heps, 10 uM [3] | SERPINC1, MGH54 (RNA seq), 10 uM [4] | SERPINC1 mRNA, H8290, 1 uM [1] | SERPINC1 mRNA, H8290, 10 uM [1] | LDLR Fold Change (Log2) [5] | UGT1A1 Fold Change (Log2) [6] | ANGPTL3 Fold Change (Log2) [2] | PCSK9 Fold Change (Log2) [7] | SERPINC1 Fold Change (Log2) [8]
COc1ccc(-c2ccc3c(N4CCOC[C@@H]4C)nc(N4CCOC[C@@H]4C)nc3n2)cc1CO [AZD8055] | 1.3 | 1.61 | 0.4965 | 3.2 | 3.4 | 0 |  |  |  |  |  |  | 
COc1cc2c(Oc3ccc(NC(=O)C4(C(=O)Nc5ccc(F)cc5)CC4)cc3F)ccnc2cc1OCCCN1CCOCC1 [Foretinib] | 1.04 | 1.36 |  | 1.05 | 0.93 | 0 | 1 | 2.2 |  |  |  |  | 
O=c1cc(N2CCOCC2)oc2c(-c3ccccc3)cccc12 [LY294002] |  |  |  |  |  |  |  |  | 0.48 Log2 | 1.36 Log2 | 0 Log2 | −0.51 Log2 | 
O=C1CCc2c(Oc3ccc4c(c3)[C@@H]3[C@H](O4)[C@H]3c3nc4cc(C(F)(F)F)ccc4[nH]3)ccnc2N1 [Lifirafenib (BGB-283)/BeiGene] | 1.05 | 1.21 |  | 0.81 | 1.1 | 1.43 | 1.1 | 2.1 |  |  |  |  | 
CC(=O)NCC(=O)N1[C@@H]2CC[C@H]1c1ccc(Nc3ncc(C(F)(F)F)c(NC4CCC4)n3)cc12 [PF-3814735] | 0.99 | 2.6 | 0.4383 | 1.2 | 1.86 | 2.43 |  |  |  |  |  |  | 
NS(=O)(=O)C#Cc1ccccc1 [Pifithrin-u, Pifithrin-μ] |  |  |  |  |  |  |  |  | 0.60 Log2 |  | −0.46 Log2 | −0.54 Log2 | 0.79 Log2
CO[C@H]1C[C@@H]2CC[C@@H](C)[C@@](O)(O2)C(=O)C(=O)N2CCCC[C@H]2C(=O)O[C@H]([C@H](C)C[C@@H]2CC[C@@H](OC(=O)C(C)(CO)CO)[C@H](OC)C2)CC(=O)[C@H](C)/C=C(\C)[C@@H](O)[C@@H](OC)C(=O)[C@H](C)C[C@H](C)/C=C/C=C/C=C/1C [Temsirolimus] |  |  |  |  |  | 0 | 1.2 | 1.6 |  |  |  |  | 
CCn1c(=O)c(-c2cc[nH]n2)cc2c(C)nc(N)nc21 [Voxtalisib] | 1.1 | 1.24 |  | 1.23 | 2.4 | 0 | 1.2 | 1.5 |  |  |  |  | 
